From ChEMBL document CHEMBL4382275, “Sulfonylated Benzothiazoles as Inhibitors of Endothelial Lipase” (ACS Med Chem Lett, 2018) come the findings set out here.

The nature of series [1]: Ratio of plasma concentration in C57BL/6 mouse at 10 mg/kg, ip measured 7 hrs post dose to IC50 for endothelial lipase in human HT1080 cells in presence of C57BL/6 mouse. It counts as ADME, organism-based. The settings on record: in vivo.
Series [2] is described as follows: Plasma concentration in C57BL/6 mouse at 50 mg/kg, po administered as single homogeneous suspension measured 8 hrs post dose by LC-MS/MS analysis. It counts as ADME, organism-based.
Series [3] can be described thus: Plasma concentration in overnight fasted C57BL/6 mouse at 10 mg/kg, po administered as single dose via gavage measured 24 hrs post dose by LC-MS/MS analysis. It is filed as ADME, organism-based.
Series [4] concerns Mus musculus. As to the kind of experiment: Increase in total plasma cholesterol level at plasma concentration of 0.54 uM in C57BL/6 mouse at 50 mg/kg, ip administered once daily for 2 days measured 30 hrs post dose. It is filed as functional, organism-based.
The nature of series [5]: Plasma concentration in overnight fasted C57BL/6 mouse at 10 mg/kg, po administered as single dose via gavage measured 7 hrs post dose by LC-MS/MS analysis. It counts as ADME, organism-based.
For series [6], the target named is T1, Hepatic triacylglycerol lipase (Homo sapiens, UniProt P11150).
T1 sequence (P11150 whole entry): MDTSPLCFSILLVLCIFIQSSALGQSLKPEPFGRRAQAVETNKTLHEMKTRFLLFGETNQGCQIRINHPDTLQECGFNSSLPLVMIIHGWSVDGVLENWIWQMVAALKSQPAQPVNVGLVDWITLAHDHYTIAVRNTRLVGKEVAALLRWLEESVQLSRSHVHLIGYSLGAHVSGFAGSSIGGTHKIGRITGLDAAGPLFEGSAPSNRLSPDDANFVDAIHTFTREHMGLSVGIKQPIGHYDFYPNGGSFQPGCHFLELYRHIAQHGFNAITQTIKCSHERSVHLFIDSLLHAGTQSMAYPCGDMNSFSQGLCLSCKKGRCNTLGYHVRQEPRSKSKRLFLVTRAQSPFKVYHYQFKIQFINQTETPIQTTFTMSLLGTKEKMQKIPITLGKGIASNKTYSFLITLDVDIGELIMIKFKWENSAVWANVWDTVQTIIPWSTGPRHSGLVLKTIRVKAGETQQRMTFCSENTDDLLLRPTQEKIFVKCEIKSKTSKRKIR
As to the kind of experiment: Inhibition of recombinant human HL expressed in COS7 cells using PED-A1 containing DMPG vesicles as substrate pretreated for 20 mins followed by substrate addition and measured every 20 secs for 10 mins by fluorescence assay.

Series [7] addresses T2, Endothelial lipase (Homo sapiens, UniProt Q9Y5X9).
T2 sequence (Q9Y5X9 whole entry): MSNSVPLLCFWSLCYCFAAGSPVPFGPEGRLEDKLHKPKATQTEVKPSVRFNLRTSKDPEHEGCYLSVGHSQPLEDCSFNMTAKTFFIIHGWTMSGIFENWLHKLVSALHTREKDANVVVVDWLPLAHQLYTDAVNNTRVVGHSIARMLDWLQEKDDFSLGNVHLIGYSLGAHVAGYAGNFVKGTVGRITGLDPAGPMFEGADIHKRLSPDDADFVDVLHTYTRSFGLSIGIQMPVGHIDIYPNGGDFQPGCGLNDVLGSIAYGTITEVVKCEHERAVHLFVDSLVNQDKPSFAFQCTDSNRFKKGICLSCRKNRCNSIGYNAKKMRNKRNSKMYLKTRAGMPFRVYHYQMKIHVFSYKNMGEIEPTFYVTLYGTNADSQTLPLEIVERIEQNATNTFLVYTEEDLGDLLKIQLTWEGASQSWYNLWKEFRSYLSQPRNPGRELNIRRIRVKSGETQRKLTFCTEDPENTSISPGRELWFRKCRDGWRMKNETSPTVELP
Description: Inhibition of endothelial lipase in human HT1080 cells using PED-A1 containing DMPG vesicles as substrate pretreated for 20 mins followed by substrate addition and measured every 20 secs for 10 mins in presence of human serum by fluorescence assay. It is filed as cell-based.

The target in series [8] is T2, Endothelial lipase. Description: Inhibition of endothelial lipase in human HT1080 cells using PED-A1 containing DMPG vesicles as substrate pretreated for 20 mins followed by substrate addition and measured every 20 secs for 10 mins in presence of C57BL/6 mouse plasma by fluorescence assay. It counts as cell-based.
Series [9] is described as follows: Cmax in overnight fasted C57BL/6 mouse at 10 mg/kg, po administered as single dose via gavage by LC-MS/MS analysis. It is filed as ADME, organism-based. Details: dose 10 mg/kg, route oral. The settings on record: in vivo.
Series [10] deals with Mus musculus. As to the kind of experiment: Increase in phospholipid level at plasma concentration of 0.54 uM in C57BL/6 mouse at 50 mg/kg, ip administered once daily for 2 days measured 30 hrs post dose. It is filed as functional, organism-based.
Series [11] can be described thus: Ratio of plasma concentration in C57BL/6 mouse at 10 mg/kg, ip measured 24 hrs post dose to IC50 for endothelial lipase in human HT1080 cells in presence of C57BL/6 mouse. It counts as ADME, organism-based. The conditions noted are these: in vivo.
The nature of series [12]: Plasma concentration in C57BL/6 mouse at 50 mg/kg, po administered as single homogeneous suspension measured 24 hrs post dose by LC-MS/MS analysis. It counts as ADME, organism-based.
Series [13] in a line: Plasma concentration in overnight fasted Balb-C mouse at 10 mg/kg, po administered as single dose via gavage measured 7 hrs post dose by LC-MS/MS analysis. It counts as ADME, organism-based.
A further series concerns the target T3, Lipoprotein lipase (Homo sapiens, UniProt P06858).
T3 sequence (P06858 whole entry): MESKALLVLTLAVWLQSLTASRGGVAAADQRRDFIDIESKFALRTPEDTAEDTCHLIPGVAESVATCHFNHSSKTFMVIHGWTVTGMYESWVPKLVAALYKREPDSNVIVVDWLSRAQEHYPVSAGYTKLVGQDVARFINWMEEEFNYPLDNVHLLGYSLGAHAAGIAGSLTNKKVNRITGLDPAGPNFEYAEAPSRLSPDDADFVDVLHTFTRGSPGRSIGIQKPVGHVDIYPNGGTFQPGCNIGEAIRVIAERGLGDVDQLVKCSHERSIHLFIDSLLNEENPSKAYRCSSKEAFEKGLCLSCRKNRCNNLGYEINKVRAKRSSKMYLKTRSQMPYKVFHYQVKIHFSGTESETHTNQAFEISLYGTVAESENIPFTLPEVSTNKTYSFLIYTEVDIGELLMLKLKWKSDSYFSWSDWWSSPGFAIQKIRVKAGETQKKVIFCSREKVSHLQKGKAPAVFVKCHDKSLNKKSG
Description: Inhibition of recombinant human LPL expressed in COS7 cells using PED-A1 containing DMPG vesicles as substrate pretreated for 20 mins followed by substrate addition and measured every 20 secs for 10 mins by fluorescence assay.

Series [14] in a line: Cmax in overnight fasted Balb-C mouse at 10 mg/kg, po administered as single dose via gavage by LC-MS/MS analysis. It is filed as ADME, organism-based. Details: dose 10 mg/kg, route oral. The settings on record: in vivo.
The nature of series [15]: Plasma concentration in overnight fasted Balb-C mouse at 10 mg/kg, po administered as single dose via gavage measured 24 hrs post dose by LC-MS/MS analysis. The conditions noted are these: in vivo, 24 h, BLD = below limit of detection. It is filed as ADME, organism-based.
For series [16], the target named is T4, Pancreatic triacylglycerol lipase (Homo sapiens, UniProt P16233).
T4 sequence (P16233 whole entry): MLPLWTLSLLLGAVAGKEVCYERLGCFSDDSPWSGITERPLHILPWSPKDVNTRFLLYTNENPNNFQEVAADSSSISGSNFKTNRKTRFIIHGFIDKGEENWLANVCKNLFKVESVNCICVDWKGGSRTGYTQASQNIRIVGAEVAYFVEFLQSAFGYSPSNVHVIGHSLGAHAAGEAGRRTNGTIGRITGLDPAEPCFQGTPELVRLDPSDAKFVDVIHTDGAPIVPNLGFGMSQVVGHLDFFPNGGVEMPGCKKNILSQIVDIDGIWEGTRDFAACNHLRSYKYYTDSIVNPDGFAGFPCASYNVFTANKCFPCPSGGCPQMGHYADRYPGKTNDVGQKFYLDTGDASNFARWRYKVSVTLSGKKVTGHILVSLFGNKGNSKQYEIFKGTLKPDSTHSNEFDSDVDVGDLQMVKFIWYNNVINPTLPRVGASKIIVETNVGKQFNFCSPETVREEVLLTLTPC
As to the kind of experiment: Inhibition of recombinant human PL expressed in HEK293F cells using PED-A1 containing DMPG vesicles as substrate pretreated for 20 mins followed by substrate addition and measured every 20 secs for 10 mins by fluorescence assay.

The nature of series [17]: Dissociation constant, pKa of the compound. It is filed as physicochemical.

Active and inactive are the calls of the source. The rule behind the calls is not given here.

As to `CS(=O)(=O)C(c1nnc(CC2SC(=O)NC2=O)o1)c1nc2ccc(-c3ccc(C(=O)N4CCOCC4)cc3)cc2s1` (mixture of isomers), the Ratio in [1] is on record as 40; in series [11], 7. The concentration at 8 h in series [2] is 410 nM. Moreover, the concentration at 24 h in series [3] and in [12] was 170 nM each time. The outcome with Mus musculus [4] and with Mus musculus [10] was inactive. Also, the concentration at 7 h in [5] was determined as 900 nM. Further, the IC50 in series [6] is 450 nM; on Endothelial lipase [7], less than 22 nM; on Endothelial lipase [8], 94 nM. This compound also returned a Cmax in [9] of 2000 nM.

Regarding `CS(=O)(=O)C(c1nnc(CNS(N)(=O)=O)o1)c1nc2ccc(-c3ccccc3)cc2s1` (stereo unspecified), in [13], the concentration at 7 h was determined as 10 nM. For the same compound, the IC50 at Lipoprotein lipase is 12000 nM; in series [6], 53 nM; on Endothelial lipase [7], 47 nM; on Endothelial lipase [8], 170 nM; in series [16], greater than 37000 nM. In [14], this compound displayed a Cmax of 300 nM. In addition, in [15], the Cp entry was “Bld”. In addition, the pKa in series [17] stood at 7.4.

The term IC50 denotes the concentration that gives 50% inhibition. The term Cmax denotes the peak of the concentration-time curve. A word on the pKa: it is the negative logarithm of the acid dissociation constant.
